Test results: patent publication US20060046968A1, “Prodrug substituted benzoxazoles as estrogenic agents” (priority 2004, published 2006)

Columns and labels:
Type in all cases: in vivo
[1] = test system: Sexually immature 129 SvE mice; test: Mouse uterotrophic test procedure (Procedure 2); conditions: compound 50 mg/kg s.c., days 22-25
Male HLA-B27 rats [2] = test: HLA-B27 rat test for inflammatory bowel disease: histological scoring of colon; conditions: Study B, oral 4 weeks
Experimental: Representative metabolites of compounds of the invention were evaluated in the HLA rat standard pharmacological test procedure, which emulates inflammatory bowel disease in humans. The following briefly describes the procedure used and results obtained. […] Louis) and water. Stool quality was observed daily and graded according to the following scale: Diarrhea=3; soft stool=2; normal stool=1. At the end of the study, serum was collected and stored at −70° C. A section of colon was prepared for histological analysis and an additional segment was analyzed for myeloperoxidase activity. In Study A, rats (22-26 weeks old) were dosed subcutaneously once per day for seven days with one of the regimens listed below. […] Histological analysis. Colonic tissue was immersed in 10% neutral buffered formalin. Each specimen of colon was separated into four samples for evaluation. The formalin-fixed tissues were processed in a Tissue-Tek® vaccum infiltration processor (Miles, Inc; West Haven, Conn.) for paraffin embedding. The samples were sectioned at 5 μm and then stained with hematoxylin and eosin (H&E) for blinded histological evaluations using a scale modified after Boughton-Smith. After the scores were completed, the samples were unblinded, and data were tabulated and analyzed by ANOVA linear modeling with multiple mean comparisons. Sections of colonic tissue were evaluated for several disease indicators and given relative scores.

[3] = test system: Progesterone receptor mRNA; test: Progesterone receptor mRNA regulation in the preoptic area of the rat brain; conditions: 10 mg/kg
Male HLA-B27 rats [4] = test: HLA rat test for inflammatory bowel disease: stool character (3 = diarrhea; 2 = soft stool; 1 = normal stool); conditions: Study B
Male HLA-B27 rats [5] = test: HLA-B27 rat model of arthritis: joint scores; conditions: Study 2
[6] = 10 mg/kg days 1-14, then 20 mg/kg
[7] = oral 20 mg/kg (10 mg/kg days 1-14), Day 16
[8] = oral 20 mg/kg (10 mg/kg days 1-14), Day 17
[9] = oral 20 mg/kg (10 mg/kg days 1-14), Day 19
[10] = oral 20 mg/kg (10 mg/kg days 1-14), Day 22
[11] = oral 20 mg/kg (10 mg/kg days 1-14), Day 23
[12] = oral 20 mg/kg (10 mg/kg days 1-14), Day 26

## C=Cc1cc(O)cc2nc(-c3ccc(O)cc3F)oc12 [Example 25, 2-(2-FLUORO-4-HYDROXYPHENYL)-7-VINYL-1,3-BENZOXAZOL-5-OL]
[1]
  mean uterine weight ± SEM: 9.7 ± 1.0 mg
Male HLA-B27 rats [2]; [6]
  Fibrosis (0-2), mean ± SD: 0.31 ± 0.13
  Inflammation (0-3), mean ± SD: 1.50 ± 0.35
  Lesion depth (0-2), mean ± SD: 0.44 ± 0.24
  Total score, mean ± SD: 2.69 ± 0.52
  Ulceration (0-2), mean ± SD: 0.44 ± 0.24
[3]
  Progesterone receptor mRNA (mean ± stdev): 447.0 ± 60.7 arbitrary units
Male HLA-B27 rats [4]; oral 10 mg/kg, Day 1
  Stool Character (group's average score): 1
Male HLA-B27 rats [4]; oral 10 mg/kg, Day 2
  Stool Character (group's average score): 1
Male HLA-B27 rats [4]; oral 10 mg/kg, Day 3
  Stool Character (group's average score): 1.25
Male HLA-B27 rats [4]; oral 10 mg/kg, Day 4
  Stool Character (group's average score): 1.25
Male HLA-B27 rats [4]; oral 10 mg/kg, Day 5
  Stool Character (group's average score): 1.75
Male HLA-B27 rats [4]; oral 10 mg/kg, Day 6
  Stool Character (group's average score): 1.5
Male HLA-B27 rats [4]; oral 10 mg/kg, Day 9
  Stool Character (group's average score): 1.75
Male HLA-B27 rats [4]; oral 10 mg/kg, Day 10
  Stool Character (group's average score): 1.5
Male HLA-B27 rats [4]; oral 10 mg/kg, Day 12
  Stool Character (group's average score): 1.75
Male HLA-B27 rats [4]; oral 10 mg/kg, Day 13
  Stool Character (group's average score): 2.25
Male HLA-B27 rats [4]; [7]
  Stool Character (group's average score): 1.5
Male HLA-B27 rats [4]; [8]
  Stool Character (group's average score): 1.5
Male HLA-B27 rats [4]; oral 20 mg/kg (10 mg/kg days 1-14), Day 18
  Stool Character (group's average score): 1.5
Male HLA-B27 rats [4]; [9]
  Stool Character (group's average score): 1.25
Male HLA-B27 rats [4]; [10]
  Stool Character (group's average score): 1.25
Male HLA-B27 rats [4]; [11]
  Stool Character (group's average score): 1.25
Male HLA-B27 rats [4]; oral 20 mg/kg (10 mg/kg days 1-14), Day 24
  Stool Character (group's average score): 1.25
Male HLA-B27 rats [4]; oral 20 mg/kg (10 mg/kg days 1-14), Day 25
  Stool Character (group's average score): 1.25
Male HLA-B27 rats [4]; [12]
  Stool Character (group's average score): 1.25
Male HLA-B27 rats [5]; oral 10 mg/kg, Day 1
  Joint inflammation score: 0
Male HLA-B27 rats [5]; oral 10 mg/kg, Day 2
  Joint inflammation score: 0
Male HLA-B27 rats [5]; oral 10 mg/kg, Day 3
  Joint inflammation score: 0
Male HLA-B27 rats [5]; oral 10 mg/kg, Day 4
  Joint inflammation score: 0
Male HLA-B27 rats [5]; oral 10 mg/kg, Day 5
  Joint inflammation score: 0
Male HLA-B27 rats [5]; oral 10 mg/kg, Day 6
  Joint inflammation score: 0
Male HLA-B27 rats [5]; oral 10 mg/kg, Day 7
  Joint inflammation score: 0
Male HLA-B27 rats [5]; oral 10 mg/kg, Day 8
  Joint inflammation score: 1
Male HLA-B27 rats [5]; oral 10 mg/kg, Day 10
  Joint inflammation score: 2.25
Male HLA-B27 rats [5]; oral 10 mg/kg, Day 11
  Joint inflammation score: 2.25
Male HLA-B27 rats [5]; oral 20 mg/kg (10 mg/kg days 1-14), Day 15
  Joint inflammation score: 3.75
Male HLA-B27 rats [5]; [7]
  Joint inflammation score: 3
Male HLA-B27 rats [5]; [8]
  Joint inflammation score: 2.75
Male HLA-B27 rats [5]; [9]
  Joint inflammation score: 1.5
Male HLA-B27 rats [5]; [10]
  Joint inflammation score: 1.25
Male HLA-B27 rats [5]; [11]
  Joint inflammation score: 2.5
Male HLA-B27 rats [5]; [12]
  Joint inflammation score: 1.75

## C=Cc1cc(O)cc2nc(-c3ccc(O)c(F)c3F)oc12 [Example 26, 2-(2,3-DIFLUORO-4-HYDROXYPHENYL)-7-VINYL-1,3-BENZOXAZOL-5-OL]
[1]
  mean uterine weight ± SEM: 9.0 ± 0.3 mg
[3]
  Progesterone receptor mRNA (mean ± stdev): 467.8 ± 66.7 arbitrary units

## C=CCc1cc(O)cc2nc(-c3ccc(O)c(F)c3)oc12 [Example 34, 7-ALLYL-2-(3-FLUORO-4-HYDROXYPHENYL)-1,3-BENZOXAZOL-5-OL]
Male HLA-B27 rats [2]; 10 mg/kg
  Fibrosis (0-2), mean ± SD: 0.31 ± 0.32
  Inflammation (0-3), mean ± SD: 1.81 ± 0.13
  Lesion depth (0-2), mean ± SD: 0.63 ± 0.32
  Total score, mean ± SD: 3.50 ± 1.10
  Ulceration (0-2), mean ± SD: 0.75 ± 0.46
[3]
  Progesterone receptor mRNA (mean ± stdev): 511.5 ± 23.7 arbitrary units
Male HLA-B27 rats [4]; oral 10 mg/kg, Day 1
  Stool Character (group's average score): 1
Male HLA-B27 rats [4]; oral 10 mg/kg, Day 2
  Stool Character (group's average score): 1
Male HLA-B27 rats [4]; oral 10 mg/kg, Day 3
  Stool Character (group's average score): 1
Male HLA-B27 rats [4]; oral 10 mg/kg, Day 4
  Stool Character (group's average score): 1.25
Male HLA-B27 rats [4]; oral 10 mg/kg, Day 5
  Stool Character (group's average score): 2
Male HLA-B27 rats [4]; oral 10 mg/kg, Day 6
  Stool Character (group's average score): 1.75
Male HLA-B27 rats [4]; oral 10 mg/kg, Day 7
  Stool Character (group's average score): 1.75
Male HLA-B27 rats [4]; oral 10 mg/kg, Day 8
  Stool Character (group's average score): 1.5
Male HLA-B27 rats [4]; oral 10 mg/kg, Day 9
  Stool Character (group's average score): 1.5
Male HLA-B27 rats [4]; oral 10 mg/kg, Day 10
  Stool Character (group's average score): 1.25
Male HLA-B27 rats [4]; oral 10 mg/kg, Day 11
  Stool Character (group's average score): 1.5
Male HLA-B27 rats [4]; oral 10 mg/kg, Day 12
  Stool Character (group's average score): 1.5
Male HLA-B27 rats [4]; oral 10 mg/kg, Day 13
  Stool Character (group's average score): 1.25
Male HLA-B27 rats [4]; oral 10 mg/kg, Day 14
  Stool Character (group's average score): 1.25
Male HLA-B27 rats [4]; oral 10 mg/kg, Day 15
  Stool Character (group's average score): 1.25
Male HLA-B27 rats [4]; oral 10 mg/kg, Day 16
  Stool Character (group's average score): 1
Male HLA-B27 rats [4]; oral 10 mg/kg, Day 17
  Stool Character (group's average score): 1
Male HLA-B27 rats [4]; oral 10 mg/kg, Day 18
  Stool Character (group's average score): 1.25
Male HLA-B27 rats [4]; oral 10 mg/kg, Day 19
  Stool Character (group's average score): 1
Male HLA-B27 rats [4]; oral 10 mg/kg, Day 22
  Stool Character (group's average score): 1
Male HLA-B27 rats [4]; oral 10 mg/kg, Day 23
  Stool Character (group's average score): 1
Male HLA-B27 rats [4]; oral 10 mg/kg, Day 24
  Stool Character (group's average score): 1
Male HLA-B27 rats [4]; oral 10 mg/kg, Day 25
  Stool Character (group's average score): 1
Male HLA-B27 rats [4]; oral 10 mg/kg, Day 26
  Stool Character (group's average score): 1
Male HLA-B27 rats [5]; oral 10 mg/kg, Day 1
  Joint inflammation score: 0
Male HLA-B27 rats [5]; oral 10 mg/kg, Day 2
  Joint inflammation score: 0
Male HLA-B27 rats [5]; oral 10 mg/kg, Day 3
  Joint inflammation score: 0
Male HLA-B27 rats [5]; oral 10 mg/kg, Day 4
  Joint inflammation score: 0
Male HLA-B27 rats [5]; oral 10 mg/kg, Day 5
  Joint inflammation score: 0
Male HLA-B27 rats [5]; oral 10 mg/kg, Day 6
  Joint inflammation score: 0
Male HLA-B27 rats [5]; oral 10 mg/kg, Day 7
  Joint inflammation score: 0
Male HLA-B27 rats [5]; oral 10 mg/kg, Day 8
  Joint inflammation score: 0.25
Male HLA-B27 rats [5]; oral 10 mg/kg, Day 9
  Joint inflammation score: 0.75
Male HLA-B27 rats [5]; oral 10 mg/kg, Day 10
  Joint inflammation score: 0.5
Male HLA-B27 rats [5]; oral 10 mg/kg, Day 11
  Joint inflammation score: 0.5
Male HLA-B27 rats [5]; oral 10 mg/kg, Day 12
  Joint inflammation score: 0.25
Male HLA-B27 rats [5]; oral 10 mg/kg, Day 13
  Joint inflammation score: 0.5
Male HLA-B27 rats [5]; oral 10 mg/kg, Day 14
  Joint inflammation score: 0
Male HLA-B27 rats [5]; oral 10 mg/kg, Day 15
  Joint inflammation score: 0.5
Male HLA-B27 rats [5]; oral 10 mg/kg, Day 16
  Joint inflammation score: 0.5
Male HLA-B27 rats [5]; oral 10 mg/kg, Day 17
  Joint inflammation score: 0.25
Male HLA-B27 rats [5]; oral 10 mg/kg, Day 18
  Joint inflammation score: 0.75
Male HLA-B27 rats [5]; oral 10 mg/kg, Day 19
  Joint inflammation score: 1
Male HLA-B27 rats [5]; oral 10 mg/kg, Day 22
  Joint inflammation score: 1
Male HLA-B27 rats [5]; oral 10 mg/kg, Day 23
  Joint inflammation score: 1.75
Male HLA-B27 rats [5]; oral 10 mg/kg, Day 24
  Joint inflammation score: 1.75
Male HLA-B27 rats [5]; oral 10 mg/kg, Day 25
  Joint inflammation score: 2
Male HLA-B27 rats [5]; oral 10 mg/kg, Day 26
  Joint inflammation score: 3
